Holding throughout (format): physicochemical
Series [1] is described as follows: DSC/XRPD of 75:25 mixtures of (R)-isometheptene salts and β-mannitol. The conditions noted are these: for Physical interaction with β-mannitol: 75:25 salt:mannitol, dry-granulated or wet-granulated, DSC confirmed by XRPD; for Eutectic formation with mannitol: (R)-isometheptene salts other than mucate, 75:25 with β-mannitol. Here is the method:
Thermal analytical techniques were used to analyze mixtures of several (R)-isometheptene salts and β-mannitol in a ratio of 75:25. (R)-isometheptene salts tested were as follows: (R)-isometheptene maleate, (R)-isometheptene malate, and (R)-isometheptene tartrate. Based on the thermal events recorded for each component and for the mixtures, the analyses were carried out by investigating the peaks recorded by differential scanning calorimetry (DSC) in mixture between (R)-isometheptene mucate and the excipients. Differences in thermal profiles between the single compound and the related mixture were evaluated.
Aliquots of (R)-isometheptene salts and each excipient were weighed in a ratio of 1:1 (unless specified otherwise) and ground in an agate mortar with (wet-granulation) or without (dry-granulation) a small amount of water. The homogeneous mixtures then were analyzed.
(§1) The DSC heating curves were obtained with a TA 821 DSC Mettler instrument under the following conditions:
(§2) Heating rate: 10° C./min Ambient: Nitrogen 30 mL/min Sample holder: normal open aluminum pan Temperature range: from 25° C. to 250° C. Instrument calibration: Indium sample purity 99.999%
(§3) X-ray powder diffraction (XRPD) tests were performed with the ULTIMA IV instrument (Rigaku), laying the sample on a static sample holder. The X-ray focusing slit has a variable width, interlocked with the q value. The X-ray tube has a copper target, with a current intensity of 40 mA and a voltage of 40 kV. Radiation was generated by the Cockcroft-Walton method, and was constituted by Kα1 (1.540562 Å) and Kα2 (1.544398 Å). The analytical conditions were:
(§4) Fixed Time; sampling width 0.02 deg, scanning rate 1.3 s/step, 2 q range 3.35 deg and sample holder; amorphous glass equiangular 9200/2G, 0.2 mm deep. The sample was pressed with a glass plate.

Series [2] in a line: Excipient compatibility of racemic isometheptene mucate by DSC/XRPD (1:1 mixtures). The conditions noted are these: 1:1 weight ratio, ground in agate mortar, DSC (XRPD for mannitol). Here is the method:
(§5) Thermal analytical techniques were used to assess the compatibility of a drug product containing racemic isometheptene mucate. The compatibility assessment was carried out between the racemic isometheptene mucate and a number of possible excipients in a 1:1 weight ratio. Based on the thermal events recorded for each component and for the mixtures, the analyses were carried out by investigating the peaks recorded by differential scanning calorimetry (DSC) in mixture between racemic isometheptene mucate and the excipients. Differences in thermal profiles between the single compound and the related mixture obtained after milling the products in an agate mortar were evaluated.
Aliquots of racemic isometheptene mucate and each excipient were weighed in a ratio of 1:1 (unless specified otherwise) and ground in an agate mortar. The homogeneous mixtures then were analyzed.
as §1, §2
X-ray powder diffraction (XRPD) tests were performed with the ULTIMA IV instrument (Rigaku), laying the sample on a static sample holder. The X-ray focusing slit has a variable width, interlocked with the q value. The X-ray tube has a copper target, with a current intensity of 40 mA and a voltage of 40 kV. Radiation was generated by the Cockcroft-Walton method, and was constituted by K+1 (1.540562 Å) and Kα2 (1.544398 Å). The analytical conditions were:
as §4
(In DSC, transitions show as peaks or steps in heat flow.)

Series [3] is described as follows: DSC/XRPD of binary mixtures of isometheptene mucate and mannitol (eutectic formation). To be noted: binary mixtures at different ratios. Here is the method: Because mannitol is a common excipient in solid drug formulations, it was examined for compatibility with racemic isometheptene mucate and investigated using DSC and the interactions occurring were assessed. […] To confirm the formation of a eutectic and to characterize its physical properties, several binary mixtures at different ratios of racemic isometheptene mucate and excipient were prepared and analyzed by DSC and by XRPD. The eutectic formation improved the cohesion between the racemic isometheptene mucate and excipient particles and assured better physical linking between the two.
In order to confirm the eutectic formation and to characterize its physical properties, several binary mixtures at different ratios of racemic isometheptene mucate-excipient were prepared and analyzed by DSC and by X-ray powder diffraction (XRPD). […] For each DSC heating curve, the onset temperature and the enthalpy were evaluated both for the eutectic contribute and for the excess of component. The recorded values were plotted and a phase diagram between the two components was obtained with a characteristic profile of phase diagrams of eutectic mixtures. […]
Aliquots of racemic isometheptene mucate API and mannitol were weighed in the ratios described below and ground in an agate mortar, and the homogeneous mixtures subsequently analyzed. […]

Series [4] in a line: Excipient compatibility of (R)-isometheptene mucate by DSC/XRPD (1:1 mixtures). To be noted: 1:1 weight ratio, ground in agate mortar, DSC. As to the method:
as §5, with “mucate (API).” for “mucate.”
Aliquots of (R)-isometheptene mucate and each excipient were weighed in a ratio of 1:1 (unless specified otherwise) and ground in an agate mortar. The homogeneous mixtures then were analyzed.
as §1, §2, §3, §4

With `CN[C@H](C)CCC=C(C)C.O=C(O)CC(O)C(=O)O` [(R)-isometheptene malate], in series [1], the “Physical interaction with β-mannitol” value is “No physical interaction was observed” and the “Eutectic formation with mannitol” value is listed as “do not form a eutectic composition”.
Regarding `CN[C@H](C)CCC=C(C)C.O=C(O)/C=C\C(=O)O` [(R)-isometheptene maleate], in series [1], the “Physical interaction with β-mannitol” value was “No physical interaction was observed” and the “Eutectic formation with mannitol” value is “do not form a eutectic composition”.
Regarding `CCCCCCCCCCCCCCCCCC(=O)O` [Stearic acid], the “Excipient reactions with API (racemic isometheptene mucate), Mixture 1:1” value (“Excipient reactions with API” for short) in series [2] was “YES”; in series [2] (listed as stearic acid), “physical interaction was observed”.
As for `CNC(C)CCC=C(C)C.CNC(C)CCC=C(C)C.O=C(O)[C@@H](O)[C@H](O)[C@H](O)[C@@H](O)C(=O)O` (racemic) [racemic isometheptene mucate, reference compound], in series [3], the “Interaction with mannitol (eutectic vs adduct)” value was “only a physical eutectic formation”.
For Magnesium stearate, the “Excipient reactions with (R)-isometheptene mucate, Mixture 1:1” value was “YES” in series [4] and “small physical interaction was observed” in series [4] (listed as magnesium stearate). Moreover, the “Excipient reactions with API” value in series [2] was “YES”; in series [2] (listed as magnesium stearate) it was “small physical interaction was observed”.
For the compound `OC[C@@H](O)[C@@H](O)[C@H](O)[C@H](O)CO` [Mannitol SD200], the “Excipient reactions with (R)-isometheptene mucate, Mixture 1:1” value is “Physical interaction (complex)” in series [4] and “Physical interaction was observed” in series [4] (listed as mannitol SD200). The “Excipient reactions with API” value in series [2] (listed as mannitol SD200) is listed as “Physical interaction was observed”.
Take `CN[C@H](C)CCC=C(C)C.O=C(O)C(O)C(O)C(=O)O` [(R)-isometheptene tartrate]: in series [1], the “Physical interaction with β-mannitol” value is “No physical interaction was observed” and the “Eutectic formation with mannitol” value is “do not form a eutectic composition”.
For the compound `OC[C@@H](O)[C@@H](O)[C@H](O)[C@H](O)CO` [Mannitol], the “Excipient reactions with API” value is recorded as “Physical interaction (complex)” in series [2] and “Physical interaction was observed” in series [2] (listed as mannitol).
As for Isomalt, the “Excipient reactions with (R)-isometheptene mucate, Mixture 1:1” value in series [4] is given as “No interaction reported”. For the same compound, the “Excipient reactions with API” value in series [2] was “No interaction reported”.
